Experimental data taken from paper PMC8373216, “Development and Preclinical Evaluation of New Inhaled Lipoglycopeptides for the Treatment of Persistent Pulmonary Methicillin-Resistant Staphylococcus aureus Infections” (Antimicrobial Agents and Chemotherapy, 2021).
Values after ≈ are worked out from the molar mass of the structure shown. Like-named read-outs stand apart in the source and are kept apart here.

How the values were obtained:
K. pneumoniae = experiment: Expanded panel broth microdilution MIC; assay type: cell-based
E. coli = experiment: Expanded panel broth microdilution MIC; assay type: cell-based; conditions: Escherichia coli, read-out: MIC
[1] = tested on: Staphylococcus lugdunensis; experiment: Expanded panel broth microdilution MIC; assay type: cell-based
[2] = tested on: Staphylococcus epidermidis; experiment: Expanded panel broth microdilution MIC/MBC; assay type: cell-based; conditions: for MIC: Staphylococcus epidermidis
C. freundii = experiment: Expanded panel broth microdilution MIC; assay type: cell-based; conditions: Citrobacter freundii; C. freundii MMX 6602; read-out: MIC
S. marcescens = experiment: Expanded panel broth microdilution MIC; assay type: cell-based; conditions: Serratia marcescens, ATCC43862; S. marcescens ATCC 43862; read-out: MIC
Acinetobacter baumannii = experiment: Expanded panel broth microdilution MIC; assay type: cell-based; conditions: Acinetobacter baumannii; for MIC: read-out: MIC
Haemophilus influenzae = experiment: Expanded panel broth microdilution MIC; assay type: cell-based; conditions: for MIC: read-out: MIC
Burkholderia cepacia = experiment: Expanded panel broth microdilution MIC; assay type: cell-based
P. mirabilis = experiment: Expanded panel broth microdilution MIC; assay type: cell-based; conditions: Proteus mirabilis, ATCC43071; P. mirabilis ATCC 43071; read-out: MIC
[3] = tested on: Peptostreptococcus micros; experiment: Expanded panel broth microdilution MIC; assay type: cell-based
[4] = tested on: Staphylococcus haemolyticus; experiment: Expanded panel broth microdilution MIC; assay type: cell-based
[5] = tested on: MRSA (ATCC BAA 1556; USA300); experiment: Acute pulmonary MRSA infection in neutropenic rats, nebulized nose-only inhalation; assay type: in vivo, Staphylococcus aureus; conditions: inhaled at 24 and 32 h postinfection, lungs at 48 h, RV40 14.4 mg/kg, RV94 18.8 mg/kg delivered
Description: Rats were rendered neutropenic with intraperitoneal (i.p.) cyclophosphamide on day −4 (150 mg/kg) and day −1 (100 mg/kg) relative to the challenge. On day 0 at 0 h, rats were challenged with MRSA via intranasal instillation at a target titer of 8.0 to 8.3 log10 CFU. At 24 and 32 h postchallenge, rats were loaded into a 12-port inhalation dosing tower, where they received nebulized drug or vehicle control treatments by nose-only inhalation. Animals were euthanized at 48 h postinfection for enumeration of lung MRSA titer. MRSA lung titer of test article treatments versus control is plotted for three separate experiments. […] Statistics are based on the Kolmogorov-Smirnov test for drug treatment versus control (RV94, P = 0.01). LOD = 2.1 log10 CFU/lungset.
Male Sprague Dawley rats (Envigo, Indianapolis, IN) weighing between 225 and 250 g were used in these studies. Rats were housed and acclimated to the study facility as described in the PK methods section. Rats were rendered neutropenic through a series of intraperitoneal cyclophosphamide (Sigma-Aldrich) injections on day −4 (150 mg/kg) and day −1 (100 mg/kg) relative to the challenge. On day 0 at 0 h, rats were challenged with MRSA ATCC BAA 1556 via intranasal instillation at a target titer of 8.0 to 8.3 log10 CFU using optical density and back-counting inoculum CFU. To prepare the inoculum, a frozen aliquot of the organism stored at −80°C was thawed, transferred into TSB, and incubated at 37°C while shaking for 16 h. Cultures were then centrifuged at 2,000 × g for 5 min, and the resulting pellet was resuspended in PBS and equilibrated. For the challenge procedure, rats were first anesthetized through use of 2 to 5% isoflurane in 100% oxygen, then restrained with a scruff grip and a total of 200 μl of inoculum was quickly introduced to one nare. The rat was held in a vertical position until the challenge was fully inhaled. Rats were monitored following challenge to ensure that normal respiration was achieved and then returned to their cage. […] At necropsy, whole lungs were aseptically removed and lung weights were recorded. […]

Pseudomonas aeruginosa = experiment: Expanded panel broth microdilution MIC; assay type: cell-based
Enterococcus faecium = experiment: Expanded panel broth microdilution MIC/MBC; assay type: cell-based; conditions: for MIC: Enterococcus faecium, read-out: MIC
[6] = tested on: Peptostreptococcus anaerobius; experiment: Expanded panel broth microdilution MIC; assay type: cell-based
Clostridioides difficile = experiment: Expanded panel broth microdilution MIC; assay type: cell-based
H. parainfluenzae = experiment: Expanded panel broth microdilution MIC; assay type: cell-based; conditions: Haemophilus parainfluenzae; H. parainfluenzae MMX 2529; read-out: MIC
Moraxella catarrhalis = experiment: Expanded panel broth microdilution MIC; assay type: cell-based
E. cloacae = experiment: Expanded panel broth microdilution MIC; assay type: cell-based; conditions: Enterobacter cloacae, read-out: MIC
P. vulgaris = experiment: Expanded panel broth microdilution MIC; assay type: cell-based; conditions: Proteus vulgaris; P. vulgaris MMX 9373; read-out: MIC

Q: What does the source list for `CCCCCCCCCCNCCN[C@@]1(C)C[C@H](O[C@H]2[C@H](Oc3c4cc5cc3Oc3ccc(cc3Cl)[C@@H](O)[C@@H](NC(=O)[C@@H](CC(C)C)NC)C(=O)N[C@@H](CC(N)=O)C(=O)N[C@H]5C(=O)N[C@H]3C(=O)N[C@H](C(=O)N[C@H](C(=O)O)c5cc(O)cc(O)c5-c5cc3ccc5O)[C@H](O)c3ccc(c(Cl)c3)O4)O[C@H](CO)[C@@H](O)[C@@H]2O)O[C@@H](C)[C@H]1O` [RV40, N-decylaminoethylvancomycin]?
A: MIC (K. pneumoniae; K. pneumoniae MMX 4679, KPC-2): > 64 µg/mL; MIC (K. pneumoniae; Klebsiella pneumoniae, K. pneumoniae MMX 2542, read-out: MIC): > 64 µg/mL; MIC (E. coli; ATCC25922, E. coli ATCC 25922, non-ESBL): > 64 µg/mL; MIC (E. coli; E. coli MMX 5684, ESBL (TEM-10)): > 64 µg/mL; MIC ([1]; S. lugdunensis, 1 isolate): 4 ng/mL (≈ 0.00245 µM); MIC ([1]; Staphylococcus lugdunensis, S. lugdunensis MMX 8724, read-out: MIC): 4 ng/mL (≈ 0.00245 µM); MIC:MBC ([2]; S. epidermidis MRSE, MBC on one organism): 1; MIC ([2]; ATCC49134, S. epidermidis ATCC 49134, MSSE, read-out: MIC): 15 ng/mL (≈ 0.00919 µM); MIC ([2]; MRSE, S. epidermidis MMX 762, MRSE, read-out: MIC): 8 ng/mL (≈ 0.0049 µM); MIC ([2]; MRSE, S. epidermidis MMX 5145, MRSE, read-out: MIC): 4 ng/mL (≈ 0.00245 µM); MIC ([2]; MRSE, S. epidermidis MRSE, 2 isolates, read-out: MIC (median)): 8 ng/mL (≈ 0.0049 µM); MIC ([2]; S. epidermidis MSSE, 1 isolate, read-out: MIC): 15 ng/mL (≈ 0.00919 µM); MIC (C. freundii): > 64 µg/mL; MIC (S. marcescens): > 64 µg/mL; MIC range (Acinetobacter baumannii): 32 to 64 µg/mL; MIC (Acinetobacter baumannii; A. baumannii MMX 3372, MDR): 64 µg/mL (≈ 39.2 µM); MIC (Acinetobacter baumannii; A. baumannii MMX 6974, colistinR): 32 µg/mL (≈ 19.6 µM); MIC (Acinetobacter baumannii; NCTC13304, A. baumannii NCTC 13304, OXA-27): > 64 µg/mL; MIC range (Haemophilus influenzae): 16 to 32 µg/mL; MIC (Haemophilus influenzae; ATCC49247, H. influenzae ATCC 49247, BL-): 64 µg/mL (≈ 39.2 µM); MIC (Haemophilus influenzae; H. influenzae MMX 7988, BL+): 32 µg/mL (≈ 19.6 µM); MIC (Burkholderia cepacia): > 64 µg/mL; MIC (Burkholderia cepacia; B. cepacia MMX 9040, read-out: MIC): > 64 µg/mL; MIC (P. mirabilis): > 64 µg/mL; MIC ([3]; P. micros, 1 isolate): 0.06 µg/mL (≈ 0.0368 µM); MIC ([3]; Parvimonas micra, P. micros MMX 3546, read-out: MIC): 0.06 µg/mL (≈ 0.0368 µM); MIC ([4]; ATCC29970, S. haemolyticus ATCC 29970, read-out: MIC): 0.015 µg/mL (≈ 0.00919 µM); MIC ([4]; S. haemolyticus, 1 isolate, read-out: MIC): 0.015 µg/mL (≈ 0.00919 µM); Average reduction in lung MRSA titer versus vehicle control [5]: 0.8 log10 CFU; MIC (Pseudomonas aeruginosa): > 64 µg/mL; MIC (Pseudomonas aeruginosa; ATCC27853, P. aeruginosa ATCC 27853, read-out: MIC): > 64 µg/mL; MIC (Pseudomonas aeruginosa; P. aeruginosa MMX 2562, MDR, read-out: MIC): > 64 µg/mL; MIC:MBC (Enterococcus faecium; E. faecium VanA VRE): >4; MIC:MBC (Enterococcus faecium; E. faecium VanB VRE): >8; MIC (Enterococcus faecium; E. faecium MMX 4204, VSE): 4 ng/mL (≈ 0.00245 µM); MIC (Enterococcus faecium; E. faecium VSE, 1 isolate): 4 ng/mL (≈ 0.00245 µM); MIC (Enterococcus faecium; VRE, E. faecium MMX 173, VanB VRE): 8 ng/mL (≈ 0.0049 µM); MIC (Enterococcus faecium; VRE, E. faecium MMX 851, VanA VRE): 1000 ng/mL (≈ 0.613 µM); MIC (Enterococcus faecium; VRE, E. faecium VanA VRE, 1 isolate): 1000 ng/mL (≈ 0.613 µM); MIC (Enterococcus faecium; VRE, E. faecium VanB VRE, 1 isolate): 8 ng/mL (≈ 0.0049 µM); MIC ([6]; ATCC27337, P. anaerobius ATCC 27337, read-out: MIC): 8 ng/mL (≈ 0.0049 µM); MIC ([6]; P. anaerobius, 1 isolate, read-out: MIC): 8 ng/mL (≈ 0.0049 µM); MIC (Clostridioides difficile; ATCCBAA1805, C. difficile ATCC BAA-1805, ribo 027, read-out: MIC): 0.06 µg/mL (≈ 0.0368 µM); MIC (Clostridioides difficile; ATCCBAA1870, C. difficile ATCC BAA-1870, NAP1;ribo 027, read-out: MIC): 0.12 µg/mL (≈ 0.0735 µM); MIC (Clostridioides difficile; C. difficile ATTC 700057, toxAB-, read-out: MIC): 0.06 µg/mL (≈ 0.0368 µM); MIC (Clostridioides difficile; C. difficile NAP1;ribo 027, 1 isolate, read-out: MIC): 0.12 µg/mL (≈ 0.0735 µM); MIC (Clostridioides difficile; C. difficile ribo 027, 1 isolate, read-out: MIC): 0.06 µg/mL (≈ 0.0368 µM); MIC (Clostridioides difficile; C. difficile toxAB-, 1 isolate, read-out: MIC): 0.06 µg/mL (≈ 0.0368 µM); MIC (H. parainfluenzae): 16 µg/mL (≈ 9.8 µM); MIC range (Moraxella catarrhalis): 1 to 2 µg/mL; MIC (Moraxella catarrhalis; ATCC8176, M. catarrhalis ATCC 8176, read-out: MIC): 1 µg/mL (≈ 0.613 µM); MIC (Moraxella catarrhalis; ATCC8193, M. catarrhalis ATCC 8193, read-out: MIC): 32 µg/mL (≈ 19.6 µM); MIC (Moraxella catarrhalis; M. catarrhalis MMX 3782, read-out: MIC): 1 µg/mL (≈ 0.613 µM); MIC (E. cloacae; ATCC49141, E. cloacae ATCC 49141): > 64 µg/mL; MIC (E. cloacae; ATCCBAA1143, E. cloacae ATCC BAA-1143, AmpC): > 64 µg/mL; MIC (P. vulgaris): > 64 µg/mL
